{"source": "patent US20180016548A1", "about": "“ACELLULAR SCAFFOLDS FOR MATURATION OF IPSC-HEPATOCYTES” (Northwestern University, priority 2016, published 2018)", "test_system": "CYP1A2", "assay": "CYP1A2 enzyme activity in iPSC-hepatocytes (Luc-ME luminescence)", "assay_type": "cell-based, human", "conditions": "in comparison to primary hepatocytes, 5 μM inducer for 48 h", "description": "100 μl of this luciferin medium was added to a 96-well white opaque plate with 100 μl luciferin detection reagent, and the luminescence signal was measured on a Cytation 3 Cell Imaging Multi-Mode Reader (BioTek Inc. Winooski, Vt.). After determining the activity, the amount of cells in each scaffold or sandwich culture was analyzed with Quant-iT™ Pico Green kit following the protocols described above."}
{"smiles": "Cc1ccc2cc3c(ccc4ccccc43)c3c2c1CC3", "note": "[3-methylcholanthrene]", "values": [{"measurement": "induction of CYP1A2 activity", "value": "modest"}]}
